Results taken from ChEMBL document CHEMBL5550173, “Design, synthesis and biological evaluation of indoline-maleimide conjugates as potential antitumor agents for the treatment of colorectal cancer” (Bioorg Med Chem, 2024).
The source made the active and inactive calls. The calls are words filed in the database; no cut-off is given here.

Assays:
HCT-116 [1] = assay: Induction of apoptosis in human HCT-116 cells assessed as early apoptotic cells at 5 uM incubated for 48 hrs by Annexin V-PE and propidium iodide staining based flow cytometry analysis (reference value: 0.4%); type: functional
[2] = Acute toxicity in BALB/c mouse assessed as spleen lesion at 50 to 100 mg/kg, ip measured every 2 days by H and E staining based assay; type: organism-based; conditions: in vivo, 48 h, dose 50-100 mg/kg
[3] = biological target: Glycogen synthase kinase-3 beta (Homo sapiens) (UniProt P49841); assay: Inhibition of GSK-3beta phosphorylation in human HCT-116 cells by incubated for 48 hrs Western blotting analysis; type: cell-based; conditions: dose 2.5-10 µM
Sequence of Glycogen synthase kinase-3 beta (Homo sapiens) (P49841 whole entry, looked up): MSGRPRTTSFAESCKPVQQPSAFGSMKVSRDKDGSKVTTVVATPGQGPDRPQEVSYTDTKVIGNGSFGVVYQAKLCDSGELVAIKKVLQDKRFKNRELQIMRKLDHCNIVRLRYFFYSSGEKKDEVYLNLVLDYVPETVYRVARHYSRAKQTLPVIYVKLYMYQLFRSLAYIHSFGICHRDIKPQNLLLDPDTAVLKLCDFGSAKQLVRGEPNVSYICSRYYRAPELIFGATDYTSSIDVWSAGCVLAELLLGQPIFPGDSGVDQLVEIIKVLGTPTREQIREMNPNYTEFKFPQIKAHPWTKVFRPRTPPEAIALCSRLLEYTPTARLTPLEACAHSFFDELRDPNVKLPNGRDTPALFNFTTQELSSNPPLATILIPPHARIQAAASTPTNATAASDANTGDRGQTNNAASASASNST

HCT-116 [4] = assay: Induction of cell cycle arrest in human HCT-116 cells assessed as downregulation of CDK6 expression at 2.5 to 10 uM incubated for 48 hrs by Western blotting analysis; type: functional, cell-based; conditions: dose 2.5-10 µM
HCT-116 [5] = assay: Induction of cell cycle arrest in human HCT-116 cells assessed as downregulation of CDK4 expression at 2.5 to 10 uM incubated for 48 hrs by Western blotting analysis; type: functional, cell-based; conditions: dose 2.5-10 µM
HCT-116 [6] = assay: Induction of cell cycle arrest in human HCT-116 cells assessed as upregulation of p21 expression at 2.5 to 10 uM incubated for 48 hrs by Western blotting analysis; type: functional, cell-based; conditions: dose 2.5-10 µM
HCT-116 [7] = assay: Induction of apoptosis in human HCT-116 cells assessed as late apoptotic cells at 2.5 uM incubated for 48 hrs by Annexin V-PE and propidium iodide staining based flow cytometry analysis (reference value: 0.5%); type: functional
HCT-116 [8] = assay: Induction of apoptosis in human HCT-116 cells assessed as viable cells at 10 uM incubated for 48 hrs by Annexin V-PE and propidium iodide staining based flow cytometry analysis (reference value: 97.8%); type: functional; conditions: read-out: Activity
RKO [9] = assay: Inhibition of colony formation in human RKO cells at 4 uM incubated for 10 days with every 3 days of media replacement by crystal violet staining based assay; type: functional; conditions: 240 h, time 10 day
RKO [10] = assay: Induction of apoptosis in human RKO cells assessed as early apoptotic cells at 2.5 uM incubated for 48 hrs by Annexin V-PE and propidium iodide staining based flow cytometry analysis (reference value: 0.2%); type: functional
RKO [11] = assay: Effect on RB1 expression in human RKO cells at 2.5 to 10 uM incubated for 48 hrs by Western blotting analysis; type: functional, cell-based; conditions: dose 2.5-10 µM
RKO [12] = assay: Induction of cell cycle arrest in human RKO cells assessed as upregulation of p53 expression at 2.5 to 10 uM incubated for 48 hrs by Western blotting analysis; type: functional, cell-based; conditions: dose 2.5-10 µM
HT-29 = assay: Cytotoxicity against human HT-29 cells at 5 uM incubated for 72 hrs by MTS assay; type: functional
RKO [13] = assay: Cytotoxicity against human RKO cells at 5 uM incubated for 72 hrs by MTS assay; type: functional
HCT-116 [14] = assay: Effect on AKT level in human HCT-116 cells at 2.5 to 10 uM incubated for 48 hrs by Western blotting analysis; type: functional, cell-based; conditions: dose 2.5-10 µM
RKO [15] = assay: Induction of apoptosis in human RKO cells assessed as early apoptotic cells at 10 uM incubated for 48 hrs by Annexin V-PE and propidium iodide staining based flow cytometry analysis (reference value: 0.2%); type: functional
HCT-116 [16] = assay: Induction of apoptosis in human HCT-116 cells assessed as necrotic cells at 5 uM incubated for 48 hrs by Annexin V-PE and propidium iodide staining based flow cytometry analysis (reference value: 1.3%); type: functional
[17] = Acute toxicity in BALB/c mouse assessed as heart lesion at 50 to 100 mg/kg, ip measured every 2 days by H and E staining based assay; type: organism-based; conditions: in vivo, 48 h, dose 50-100 mg/kg
HCT-116 [18] = assay: Effect on RB1 expression in human HCT-116 cells at 2.5 to 10 uM incubated for 48 hrs by Western blotting analysis; type: functional, cell-based; conditions: dose 2.5-10 µM
RKO [19] = assay: Induction of apoptosis in human RKO cells assessed as viable cells at 5 uM incubated for 48 hrs by Annexin V-PE and propidium iodide staining based flow cytometry analysis (reference value: 99.2%); type: functional; conditions: read-out: Activity
RKO [20] = assay: Induction of apoptosis in human RKO cells assessed as necrotic cells at 5 uM incubated for 48 hrs by Annexin V-PE and propidium iodide staining based flow cytometry analysis (reference value: 0.3%); type: functional
[21] = Acute toxicity in BALB/c mouse assessed as kidney lesion at 50 to 100 mg/kg, ip measured every 2 days by H and E staining based assay; type: organism-based; conditions: in vivo, 48 h, dose 50-100 mg/kg
HCT-116 [22] = assay: Inhibition of cell migration in human HCT-116 cells at 2.5 to 10 uM measured upto 48 hrs by scratch wound healing assay; type: functional, cell-based; conditions: dose 2.5-10 µM
RKO [23] = assay: Induction of cell cycle arrest in human RKO cells assessed as downregulation of p-Rb expression at 2.5 to 10 uM incubated for 48 hrs by Western blotting analysis; type: functional, cell-based; conditions: dose 2.5-10 µM
[24] = Toxicity in BALB/c nude mouse assessed as adverse effect at 5 to 10 mg/kg, ip administered every 2 days; type: organism-based; conditions: in vivo, 48 h, dose 5-10 mg/kg
HCT-116 [25] = assay: Induction of cell cycle arrest in human HCT-116 cells assessed as downregulation of p-Rb expression at 2.5 to 10 uM incubated for 48 hrs by Western blotting analysis; type: functional, cell-based; conditions: dose 2.5-10 µM
HCT-116 [26] = assay: Effect on GSK-3beta level in human HCT-116 cells at 2.5 to 10 uM incubated for 48 hrs by Western blotting analysis; type: functional, cell-based; conditions: dose 2.5-10 µM
HCT-116 [27] = assay: Antitumor activity against human HCT-116 cells xenografted in BALB/c mouse assessed as tumor growth suppression at 5 to 10 mg/kg, ip measured every 2 days by H and E staining based assay; type: functional, organism-based; conditions: dose 5-10 mg/kg
RKO [28] = assay: Induction of cell cycle arrest in human RKO cells assessed as downregulation of CDK4 expression at 2.5 to 10 uM incubated for 48 hrs by Western blotting analysis; type: functional, cell-based; conditions: dose 2.5-10 µM
[29] = Acute toxicity in BALB/c mouse assessed as appearance of abnormal behavior at 50 to 100 mg/kg, ip measured every 2 days; type: organism-based; conditions: in vivo, 48 h, dose 50-100 mg/kg
[30] = biological target: Serine/threonine-protein kinase AKT (Homo sapiens) (UniProt P31751+Q9Y243+P31749); assay: Inhibition of AKT phosphorylation in human HCT-116 cells by incubated for 48 hrs Western blotting analysis; type: cell-based; conditions: dose 2.5-10 µM
Sequence of Serine/threonine-protein kinase AKT (Homo sapiens) (P31749 whole entry, looked up): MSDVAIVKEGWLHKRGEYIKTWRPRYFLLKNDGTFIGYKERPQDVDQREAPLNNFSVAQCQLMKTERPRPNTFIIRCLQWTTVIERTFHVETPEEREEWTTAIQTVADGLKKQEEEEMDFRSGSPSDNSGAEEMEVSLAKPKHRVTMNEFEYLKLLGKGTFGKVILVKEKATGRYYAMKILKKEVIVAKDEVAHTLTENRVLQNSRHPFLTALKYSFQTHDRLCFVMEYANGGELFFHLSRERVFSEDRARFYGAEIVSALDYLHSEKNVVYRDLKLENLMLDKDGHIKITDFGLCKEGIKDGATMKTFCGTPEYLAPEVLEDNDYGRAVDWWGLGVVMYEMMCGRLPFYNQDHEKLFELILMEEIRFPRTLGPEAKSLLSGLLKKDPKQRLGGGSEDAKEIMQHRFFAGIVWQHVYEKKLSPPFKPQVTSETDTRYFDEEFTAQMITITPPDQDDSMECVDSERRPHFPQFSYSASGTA
Sequence of Serine/threonine-protein kinase AKT (Homo sapiens) (P31751 whole entry, looked up): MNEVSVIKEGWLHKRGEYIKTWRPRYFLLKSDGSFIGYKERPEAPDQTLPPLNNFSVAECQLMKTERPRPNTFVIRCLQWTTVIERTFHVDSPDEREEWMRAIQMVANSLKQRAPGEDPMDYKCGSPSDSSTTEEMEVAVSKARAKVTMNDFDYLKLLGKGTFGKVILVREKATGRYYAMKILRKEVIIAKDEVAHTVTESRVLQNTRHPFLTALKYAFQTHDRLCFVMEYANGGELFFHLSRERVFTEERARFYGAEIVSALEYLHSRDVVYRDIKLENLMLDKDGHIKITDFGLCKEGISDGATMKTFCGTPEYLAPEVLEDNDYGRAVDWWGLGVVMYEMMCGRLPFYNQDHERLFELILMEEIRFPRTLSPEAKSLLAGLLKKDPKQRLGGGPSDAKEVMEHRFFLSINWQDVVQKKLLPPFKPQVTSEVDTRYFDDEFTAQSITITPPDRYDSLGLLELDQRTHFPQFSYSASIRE
Sequence of Serine/threonine-protein kinase AKT (Homo sapiens) (Q9Y243 whole entry, looked up): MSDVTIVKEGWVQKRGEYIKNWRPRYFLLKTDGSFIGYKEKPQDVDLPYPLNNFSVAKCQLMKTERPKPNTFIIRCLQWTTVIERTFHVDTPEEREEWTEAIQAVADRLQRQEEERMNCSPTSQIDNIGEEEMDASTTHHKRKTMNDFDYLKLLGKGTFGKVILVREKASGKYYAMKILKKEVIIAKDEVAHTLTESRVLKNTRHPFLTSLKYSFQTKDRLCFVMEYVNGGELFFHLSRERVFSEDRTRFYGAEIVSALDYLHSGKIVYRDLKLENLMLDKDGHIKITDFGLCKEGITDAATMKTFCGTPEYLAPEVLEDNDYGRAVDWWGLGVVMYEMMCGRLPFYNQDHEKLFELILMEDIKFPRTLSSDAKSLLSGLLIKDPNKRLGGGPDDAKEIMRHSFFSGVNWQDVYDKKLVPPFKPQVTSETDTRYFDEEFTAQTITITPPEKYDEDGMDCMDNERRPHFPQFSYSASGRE

HCT-116 [31] = assay: Induction of cell cycle arrest in human HCT-116 cells assessed as accumulation of cells at G0/G1 phase incubated for 48 hrs by propidium iodide staining based flow cytometry analysis; type: functional; conditions: dose 2.5-10 µM
[32] = Acute toxicity in BALB/c mouse assessed as liver lesion at 50 to 100 mg/kg, ip measured every 2 days by H and E staining based assay; type: organism-based; conditions: in vivo, 48 h, dose 50-100 mg/kg
RKO [33] = assay: Induction of cell cycle arrest in human RKO cells assessed as downregulation of CDK6 expression at 2.5 to 10 uM incubated for 48 hrs by Western blotting analysis; type: functional, cell-based; conditions: dose 2.5-10 µM
HCT-116 [34] = assay: Induction of apoptosis in human HCT-116 cells assessed as upregulation of cleaved caspase-3 expression incubated for 48 hrs by Western blotting analysis; type: functional, cell-based; conditions: dose 2.5-10 µM
RKO [35] = assay: Induction of apoptosis in human RKO cells assessed as early apoptotic cells at 5 uM incubated for 48 hrs by Annexin V-PE and propidium iodide staining based flow cytometry analysis (reference value: 0.2%); type: functional
RKO [36] = assay: Induction of apoptosis in human RKO cells assessed as late apoptotic cells at 5 uM incubated for 48 hrs by Annexin V-PE and propidium iodide staining based flow cytometry analysis (reference value: 0.3%); type: functional

With `C=C(C)C(=O)N1CCc2cccc(C3=CC(=O)N(C)C3=O)c21` the Activity (HCT-116 [1]) was 1.5%, the Activity [2] was “Non-Toxic” and the inhibition [3] was “Dose-Dependent Effect”. The Activity (HCT-116 [4]) was “Active”, the Activity (HCT-116 [5]) was “Active” and the Activity (HCT-116 [6]) was “Active”. It also gave an Activity (HCT-116 [7]) of 1%, a viability at 10 µM (HCT-116 [8]) of 83.1% and an inhibition at 4 µM (RKO [9]) of 100%. For the same compound, the Activity (RKO [10]) was 0.5%, the Activity (RKO [11]) was “inactive” and the Activity (RKO [12]) was “Active”. For the same compound, the Activity (HT-29) was 99.28%, the Activity (RKO [13]) was 100.1% and the Activity (HCT-116 [14]) was “inactive”. For the same compound, the Activity (RKO [15]) was 4.9%, the Activity (HCT-116 [16]) was 3.2% and the Activity [17] was “Non-Toxic”. For the same compound, the Activity (HCT-116 [18]) was “inactive”, the viability at 5 µM (RKO [19]) was 98% and the Activity (RKO [20]) was 0%. For the same compound, the Activity [21] was “Non-Toxic”, the inhibition (HCT-116 [22]) was “Active” and the Activity (RKO [23]) was “Active”. For the same compound, the Activity [24] was “Non-Toxic”, the Activity (HCT-116 [25]) was “Active” and the Activity (HCT-116 [26]) was “inactive”. The Activity (HCT-116 [27]) was “Active”, the Activity (RKO [28]) was “Active” and the Activity [29] was “Non-Toxic”. For the same compound, the inhibition [30] was “Dose-Dependent Effect”, the Activity (HCT-116 [31]) was “Dose-Dependent Effect” and the Activity [32] was “Non-Toxic”. For the same compound, the Activity (RKO [33]) was “Active”, the Activity (HCT-116 [34]) was “Dose-Dependent Effect” and the Activity (RKO [35]) was 1.5%. The Activity (RKO [36]) was 0.4%.
